According to patent US5387585A, “Imidazodiazepine derivatives” (Hoffmann-La Roche Inc., priority 1991, dated 1995):

Legend:
[1] = biological target: central benzodiazepine receptors; assay: 3H-Flumazenil binding test in vitro; conditions: inhibition of specific binding of tritiated flumazenil, rat cortex
Procedure: 3H-Flumazenil binding test
The affinity of compounds of formula I to the central benzodiazepine receptors was established in vitro according to the methods described in Nature 294, 763-765 (1981) and J. Neurochemistry 37, 714-722 (1981). According to these methods, the inhibition of the binding of tritiated flumazenil to the specific benzodiazepine receptors in the cortex of rats by the respective test substances is determined. The IC50 ("50% inhibiting concentration") denotes that concentration of the respective test substance which brings about a 50 percent inhibition of the specific binding of tritiated flumazenil to the specific benzodiazepine receptors in the cortex of rats.

rat = assay: Conflict test in the rat; format: in vivo; conditions: po, 30 minutes before the 1-hour conflict test, read-out: Conflict test, rat, FSD (first significant anxiolytically-active dosage)
Procedure: The test apparatus is a one-key Skinner box having a feed pellet dispenser. At least 8 hungry rats are usually employed per substance and dosage for the testing of potential anxiolytics. Rats which respond to the known anxiolytic chlorodiazepoxide are used. The test substances, which are dissolved or suspended in a mixture of 10 ml of distilled water and 2 drops of Tween 80, are administered to the test animals by means of a probang 30 minutes before the 1-hour conflict test. During the test, in which each press of the key for a feed pellet is combined with a foot shock (conflict), the number key activations is registered. Each test animal serves as its own control in that it is pre-treated once with test substance and once with sodium chloride solution.
The first significant anxiolytically-active dosage (FSD) is determined with the Wilcoxon test (comparison of pairs) by comparing directly the number of key activations in the main test (feed pellet +foot shock after pre-treatment with test substance) with the number of key activations in the control test (feed pellet +foot shock after pre-treatment with sodium chloride solution).

Male DBA 2J mice = assay: Audiogenic seizures (anticonvulsive test); format: in vivo; conditions: po, 0.5 h; mouse, p.o., prevention of tonic convulsions in 50% of animals, 30 minutes before test; read-out: Audiogenic seizure, mouse, ED50
Procedure: The anticonvulsive properties of the compounds of formula I can be determined, for example, in the test described hereinafter.
The test apparatus is a soundproofed one-key box having a built-in sound source. Male DBA 2J mice aged 21 days and weighing 7-11 g are employed for the testing of the substances. These mice are an animal model for epilepsy in which sonic irradiation causes seizures. The test substances are employed as aqueous suspensions of different concentration and are administered to the experimental animals orally or intraperitonally in an amount of 10 ml/kg 30 minutes before the beginning of the test. The test animals are exposed for 60 seconds to a sonic irradiation of 110 dB/14 KHz. This produces in untreated animals symptoms such as racing around, cronic seizures and tonic convulsions. The ED50 value, that is, that dosage of a test substance which in :50% of the test animals prevents the tonic convulsions caused by the sonic irradiation, is determined.

[2] = tested on: female mice (Charles-River); assay: Reversal of the action of meclonazepam in the rotating rod test; format: in vivo; conditions: iv, 0.5 h; mouse, i.v., after 5 mg/kg meclonazepam i.p.; 50% of animals remain on rod; read-out: Anti-meclonazepam, rotating rod, mouse, ID50
Procedure: Reversal of the action of meclonazepam in the rotating rod test
Test description: female mice (Charles-River, Pans) weighing 19-21 g are used, They have free access to feed and drinking water up to 1 h; before the beginning of the test. They are brought into the test laboratory at lent 30 min. before the test.
In the rotating rod test the animals are placed on a horizontally arranged, smooth metal rod having a diameter of 3 cm, which is rotated at 2 revolutions per min. Initially, the animals are given the opportunity of familiarizing themselves with the test situation for 30sec. Subsequently, those animals which succeed in remaining on the rod for at least 1 min. are selected.
Determination of the reversal of the activity of meclonazepam: 5 mg/kg of meclonazepam are administered intraperitonally to the animals as a suspension in a 0.3% aqueous Tween 80 solution. This causes an inability to stay on the rotating red, which lasts for several hours. 20 min. later, a fine suspension of the test preparation in a 0.3% Tween 80 solution in water is administered intravenously. 30 min. later, it is determined whether the animals can stay on the rod for at least I min. The dosage at which 50% of the animals are capable of remaining on the rod is determined (ID50).

Fc1ccc2c(c1)-c1ncnn1Cc1c(-c3noc(C4CC4)n3)ncn1-2 [C, 10-(5-cyclopropyl-1,2,4-oxadiazol-3-yl)-3-fluoro-9H-imidazo[1,5-a][1,2,4]triazolo[1,5-d][1,4]benzodiazepine]
IC50 [1]: 0.91 nM
minimal effective dose (rat): 0.003 mg/kg
ED50 (Male DBA 2J mice): 0.015 mg/kg
ED50 [2]: 0.17 mg/kg

Clc1ccc2c(c1)-c1nccn1Cc1c(-c3noc(C4CC4)n3)ncn1-2 [E, 3-chloro-10-(5-cyclopropyl-1,2,4-oxadiazol-3-yl)-9H-diimidazo[1,5-a:1',2'-d][1,4]benzodiazepine]
IC50 [1]: 2.9 nM
minimal effective dose (rat): 1 mg/kg
ED50 (Male DBA 2J mice): 0.21 mg/kg

c1ccc2c(c1)-c1ncnn1Cc1c(-c3noc(C4CC4)n3)ncn1-2 [D, 10-(5-cyclopropyl-1,2,4-oxadiazol-3-yl)-9H-imidazo[1,5-a][1,2,4]triazolo[1,5-d][1,4]benzodiazepine]
IC50 [1]: 0.33 nM
minimal effective dose (rat): 3 mg/kg
ED50 (Male DBA 2J mice): 4.2 mg/kg
ED50 [2]: 0.08 mg/kg

Clc1cccc2c1-c1nccn1Cc1c(-c3noc(C4CC4)n3)ncn1-2 [I, 4-chloro-10-(5-cyclopropyl-1,2,4-oxadiazol-3-yl)-9H-diimidazo[1,5-a:1',2'-d][1,4]benzodiazepine]
IC50 [1]: 0.3 nM
minimal effective dose (rat): 0.03 mg/kg
ED50 (Male DBA 2J mice): 0.00011 mg/kg

Fc1ccc2c(c1)-c1ncnn1Cc1c(-c3nc(C4CC4)no3)ncn1-2 [B, 10-(3-cyclopropyl-1,2,4-oxadiazol-5-yl)-3-fluoro-9H-imidazo[1,5-a][1,2,4]triazolo[1,5-d][1,4]benzodiazepine]
IC50 [1]: 2.5 nM
minimal effective dose (rat): 0.1 mg/kg
ED50 (Male DBA 2J mice): 0.27 mg/kg
ED50 [2]: 0.8 mg/kg

CCOCc1nc(-c2ncn3c2Cn2ncnc2-c2cc(F)ccc2-3)no1 [F, 10-[5-(ethoxymethyl)-1,2,4-oxadiazol-3-yl]-3-fluoro-9H-imidazo[1,5-a][1,2,4]triazolo[1,5-d][1,4]benzo-diazepine]
IC50 [1]: 3 nM
minimal effective dose (rat): 0.1 mg/kg
ED50 (Male DBA 2J mice): 0.11 mg/kg
ED50 [2]: 1.8 mg/kg

c1ccc2c(c1)-c1ncnn1Cc1c(-c3nc(C4CC4)no3)ncn1-2 [A, 10-(3-cyclopropyl-1,2,4-oxadiazol-5-yl)-9H-imidazo[1,5-a][1,2,4]triazolo[1,5-d][1,4]benzodiazepine]
IC50 [1]: 1.3 nM
minimal effective dose (rat): 0.3 mg/kg
ED50 [2]: 1.5 mg/kg

Clc1cccc2c1-c1nccn1Cc1c(-c3nc(C4CC4)no3)ncn1-2 [H, 4-chloro-10-(3-cyclopropyl-1,2,4-oxadiazol-5-yl)-9H-diimidazo[1,5-a:1',2'-d][1,4]benzodiazepine]
IC50 [1]: 0.29 nM
minimal effective dose (rat): 0.001 mg/kg
ED50 (Male DBA 2J mice): 0.0039 mg/kg
ED50 [2]: 0.1 mg/kg

Clc1cccc2c1-c1ncnn1Cc1c(-c3noc(C4CC4)n3)ncn1-2 [G, 4-Chloro-10-(5-cyclopropyl-1,2,4-oxadiazol-3-yl)-9H-imidazo[1,5-a][1,2,4]triazolo[1,5-d][1,4]benzodiazepine]
IC50 [1]: 0.6 nM
ED50 [2]: 0.0047 mg/kg
